Experiments:
[1] = solubility / solubilization in the MCT carrier oil; settings: for stable solution concentration in MCTs: MCTs (0.0-6.0% C6, 6.0-60% C8, 6.0-60% C10), stirring at 85 degrees Celsius for 5 minutes
Excerpt: The process for solubilizing target compounds according to the disclosure comprises, in particular, the following steps: (a) preparation of a carrier liquid solution comprising a mixture of medium-chain triglycerides, an amount of this carrier liquid solution is used, the amount depending on the amount of target compound to be solubilized; (b) admixing the carrier liquid solution with the target compound; (c) and, optionally, admixing a stabilizing compound to the carrier liquid/target compound. In some cases, depending on the compound to be solubilized, solvents that dissolve both polar and non-polar compounds such as ethanol, methanol, acetonitrile, 1-butanol or isopropyl alcohol, may be added to encourage solubilization, and then removed by vacuum evaporation. As another aspect, during compounding, dry inert gas may be filtered through the mixture to remove moisture.
Riboflavin is known to have poor solubility in aqueous solutions and organic solvents. […] It may be desirable to solubilize a higher concentration of riboflavin in an ENDS. […] This mixture may then be added to MCTs (for example 0.0-6.0% C6, 6.0-60% C8, and/or 6.0-60% C10), homogenized for 5 minutes and subsequently heated to approximately 85 degrees Celsius at 250 mb (or 250 hPa) pressure in a rotary evaporator to drive off the methanol.
Another example may be sulbutiamine. Sulbutiamine is a disulfide dimer of thiamine. […] It may be desirable to provide sulbutiamine in an ENDS. […]

[2] = cited from earlier work
[3] = cited from earlier work; remark: listed apart in the source
[4] = cited from earlier work; remark: listed apart in the source
[5] = cited from earlier work; remark: listed apart in the source

SMILES: CC(=C(CCOC(=O)C(C)C)SSC(CCOC(=O)C(C)C)=C(C)N(C=O)Cc1cnc(C)nc1N)N(C=O)Cc1cnc(C)nc1N (stereo in doubt) [sulbutiamine, reference compound]
- stable solution concentration in MCTs [1]: 200 mg/mL
- solubility in fats [2]: highly soluble
- solubility in aqueous solutions ([3]; aqueous solutions): insoluble

SMILES: CC1=C(/C=C/C(C)=C/C=C/C(C)=C/C=C/C=C(C)/C=C/C=C(C)/C=C/C2=C(C)C(=O)[C@@H](O)CC2(C)C)C(C)(C)C[C@H](O)C1=O [Astaxanthin]
- quantity incorporated into the carrier oil by admixing [1]: < 2 mg/mL

SMILES: C=C(C)[C@@H]1CCC(C)=C[C@H]1c1c(O)cc(CCCCC)cc1O [Cannabidiol, cannabidiol, reference compound]
- solubilized amount in MCTs ([1]; MCTs, stirring at 45 to 65 degrees Celsius for 5 minutes): up to 80 percent v/v

SMILES: CC1=CCCC(C)(C)C1/C=C/C(C)=C/C=C/C(C)=C/C=C/C=C(C)/C=C/C=C(C)/C=C/C1=C(C)CCCC1(C)C (stereo not drawn) [alpha-carotene]
- quantity incorporated into the carrier oil by admixing [1]: < 2 mg/mL

SMILES: CCCCCCCCCCCCCCCC(=O)OC[C@H](O)[C@H]1OC(=O)C(O)=C1O [ascorbyl palmitate]
- stable solution concentration in MCTs [1]: 200 mg/mL

SMILES: CC1=C[C@H](O)CC(C)(C)[C@H]1/C=C/C(C)=C/C=C/C(C)=C/C=C/C=C(C)/C=C/C=C(C)/C=C/C1=C(C)C[C@@H](O)CC1(C)C [lutein]
- stable solution concentration in MCTs [1]: 200 mg/mL

SMILES: CC(C)=CCC/C(C)=C/C=C/C(C)=C/C=C/C(C)=C/C=C/C=C(C)/C=C/C=C(C)/C=C/C=C(\C)CCC=C(C)C [lycopene]
- stable solution concentration in MCTs [1]: 200 mg/mL

SMILES: O=C(O)Cc1ccccc1 [phenylacetic acid]
- pKa [4]: comparable to benzoic acid
- log P (partition co-efficient) [5]: comparable to benzoic acid

SMILES: Cc1cc2nc3c(=O)[nH]c(=O)nc-3n(C[C@H](O)[C@H](O)[C@H](O)CO)c2cc1C [riboflavin]
- solubility in MCTs versus aqueous solutions [1]: an order of magnitude greater solubility
- solubility in vegetable glycerin, propylene glycol and water ([3]; vegetable glycerin, propylene glycol and water): less than 0.2 mg/ml

SMILES: C=C1CC[C@H](O)C/C1=C/C=C1\CCC[C@]2(C)[C@@H]([C@H](C)CCCC(C)C)CC[C@@H]12 [vitamin-D3]
- miscibility with the carrier oil ([1]; simple admixing with the carrier oil): any proportion

From patent US10376586B2, “Method and compositions for solubilizing non-polar constituents” (Entourage Bioscience, LLC, priority 2016, dated 2019)
